Test results taken from PubChem BioAssay AID1996.
Converted amounts (≈) assume the structure as drawn.

conditions: buffer; pH 7.4; 200.0 µM

`O=C(COC(=O)CCC(=O)c1ccc(F)cc1)NCCc1ccccc1` and `CC(C)N1C(=O)c2ccccc2C1C(=O)NCCc1ccccc1` (centres undefined) are within 1.5-fold of each other in solubility kinetic: 49.1 µg/mL (≈ 137 µM) for the first, 48 µg/mL (≈ 149 µM) for the second.

Compared with `CC1CC(C)CN(c2ccc([N+](=O)[O-])nc2)C1` (centres undefined), `CC1CN(C(=S)NC(=O)c2ccccc2)CC(C)O1` (centres undefined) is higher in solubility kinetic: 28.6 µg/mL (≈ 122 µM) for the first, > 41.8 µg/mL for the second.

`CC1CN(C(=S)Nc2ccc(SC(F)F)cc2)CC(C)O1` (centres undefined) and `CC1CCCN(C(=O)CCCNC(=O)c2ccc(Cl)cc2)C1` (centres undefined) cannot be ordered by solubility kinetic: > 49.9 µg/mL for the first, > 48.4 µg/mL for the second.

`Cc1nnc(Nc2ccccc2F)s1` and `Cc1nnc(NC(=O)CCNC(=O)c2ccccc2Cl)s1` cannot be ordered by solubility kinetic: > 31.4 µg/mL for the first, > 48.7 µg/mL for the second.

First: NS(=O)(=O)c1cccc(NC(=O)Nc2ccc(Cl)cc2)c1
Second: NS(=O)(=O)c1ccc(NC(=O)Nc2cccc3ccccc23)cc1
The solubility kinetic of the first is 5.1-fold higher: 10.7 µg/mL (≈ 32.8 µM) for the first, 2.1 µg/mL (≈ 6.15 µM) for the second.

Going from `CC1CCCC(C)N1CC(O)COCc1ccccc1.Cl` (centres undefined) to `CCCCCNC(=O)[C@@H]1CSC2c3ccccc3C(=O)N21` (some centres undefined), the solubility kinetic falls from > 47.1 µg/mL to 27.7 µg/mL (≈ 91 µM).

First: S=C(NCc1ccccc1)NCc1ccccc1Cl
Second: O=C(NCc1c(O)ccc2ccccc12)c1ccccc1
The solubility kinetic of the first is 28-fold higher: 28.4 µg/mL (≈ 97.7 µM) for the first, 1 µg/mL (≈ 3.61 µM) for the second.

`Cc1csc(SCC(=O)NC(=O)NC(C)C)n1` and `CC(C)(C)c1ccc(C(=O)NC(=O)CSc2n[nH]c(N)n2)cc1` cannot be ordered by solubility kinetic: > 41 µg/mL for the first, > 50 µg/mL for the second.

First: Cc1noc(C)c1COC(=O)c1csc2c1CCC(C)C2 (centres undefined)
Second: COc1ccc(C(=O)OCc2c(C)noc2C)cc1
The solubility kinetic of the first is lower: 1.4 µg/mL (≈ 4.58 µM) for the first, > 39.2 µg/mL for the second.

`N#C/C(=C/c1ccc(F)cc1)S(=O)(=O)c1ccccc1` and `CN(C)/C=C(\C#N)S(=O)(=O)c1ccc(Cl)cc1` are within 1.5-fold of each other in solubility kinetic: 37.5 µg/mL (≈ 131 µM) for the first, 37.7 µg/mL (≈ 139 µM) for the second.

Compared with `CCOC(=O)c1ccc2c(c1)N(CC)C(=O)c1ccccc1S2`, `CCCC(C(=O)Nc1ccc2c(C)cc(=O)oc2c1)c1ccccc1` (centres undefined) is 4.6-fold lower in solubility kinetic: 13.2 µg/mL (≈ 40.3 µM) for the first, 2.9 µg/mL (≈ 8.65 µM) for the second.

Compared with `O=c1oc(-c2ccco2)nc2sc3c(c12)CCCCC3`, `O=C(NCCCN1CCOCC1)c1cc(-c2ccco2)nc2ccccc12` is higher in solubility kinetic: < 0.6 µg/mL for the first, 49.6 µg/mL (≈ 136 µM) for the second.

Compared with `COc1ccc(-n2nc(C(=O)N(C)C)nc2-c2ccccc2)cc1`, `COc1ccc(OCC(=O)Nc2ccc3oc(=O)ccc3c2)cc1` is lower in solubility kinetic: > 48.4 µg/mL for the first, 3.3 µg/mL (≈ 10.1 µM) for the second.

Going from `Cc1cccc(NS(=O)(=O)c2ccc3[nH]c(=O)[nH]c3c2)c1C` to `Cc1ccc(CNS(=O)(=O)c2ccc([N+](=O)[O-])cc2)cc1`, the solubility kinetic falls from 5 µg/mL (≈ 15.8 µM) to 1.8 µg/mL (≈ 5.88 µM) (2.8-fold).

`O=C(OCC(=O)N1CCCCC1)c1cc(=O)[nH]c2ccccc12` and `O=C(/C=C/c1ccccc1[N+](=O)[O-])OCC(=O)N1CCCC1` cannot be ordered by solubility kinetic: > 47.2 µg/mL for the first, > 45.6 µg/mL for the second.

`O=C(Oc1ccccc1C(=O)N1CCOCC1)c1ccc(F)cc1` and `O=C(CN1CCOCC1)NNC(=O)c1ccc(Cl)cc1` cannot be ordered by solubility kinetic: 45.1 µg/mL (≈ 137 µM) for the first, > 44.7 µg/mL for the second.

First: CCN(CC)CCCN=Cc1c(O)n(-c2cccc(C)c2)c(=O)c2ccccc12
Second: CCc1cnccc1CCC(=O)Nc1ccccc1C
The solubility kinetic of the first is higher: > 58.7 µg/mL for the first, 35.4 µg/mL (≈ 132 µM) for the second.

Compared with `COc1ccc(CN(C)C(=O)c2ccc3c(=O)n4c(nc3c2)CCC4)cc1`, `COc1ccc(N(CC(=O)NCCSc2ccccc2)S(=O)(=O)c2ccccc2)c(OC)c1` is lower in solubility kinetic: > 54.5 µg/mL for the first, 3.6 µg/mL (≈ 7.4 µM) for the second.

Going from `COCCCN(CC(=O)O)S(=O)(=O)c1cccc(Cl)c1` to `O=C(CCl)Nc1ccc(S(=O)(=O)Nc2nccs2)cc1`, the solubility kinetic falls from > 48.3 µg/mL to 34 µg/mL (≈ 102 µM).

Compared with `Cc1ccccc1OC(C)C(=O)Nc1cccnc1` (centres undefined), `O=C(CCc1nc(-c2ccccc2F)no1)Nc1cccnc1` is higher in solubility kinetic: 36.6 µg/mL (≈ 143 µM) for the first, > 46.8 µg/mL for the second.

`CCNC(=S)N/N=C(\C)c1cccc(OC)c1` and `CN(C)c1cccc(NC(=O)c2ccco2)c1` cannot be ordered by solubility kinetic: > 37.7 µg/mL for the first, > 34.5 µg/mL for the second.

Compared with `Cc1csc(NC(=O)c2ccc[nH]c2=O)n1`, `CC(=O)c1csc(Nc2ccccc2Cl)n1` is lower in solubility kinetic: > 35.3 µg/mL for the first, 32.8 µg/mL (≈ 130 µM) for the second.

`Nc1nc2c(s1)COc1ccccc1-2` and `COc1ccccc1OCC(=O)Nc1ccc2c(c1)OCO2` cannot be ordered by solubility kinetic: > 30.6 µg/mL for the first, 40.9 µg/mL (≈ 136 µM) for the second.

Compared with `CCC(NC(=O)c1ccncc1)c1ccccc1` (centres undefined), `O=C(C[n+]1ccccc1)Nc1ccccc1[N+](=O)[O-].[Cl-]` is lower in solubility kinetic: > 36 µg/mL for the first, 34 µg/mL for the second.

Compared with `Cc1cnc(NC(=O)C2CCC(C(C)(C)C)CC2)s1` (centres undefined), `COC(=O)C1CCN(c2cnccn2)CC1` is higher in solubility kinetic: < 0.3 µg/mL for the first, > 33.2 µg/mL for the second.

Going from `O=C(NCC1CCCO1)c1ccc(Br)s1` (centres undefined) to `CC(=NCC1CCCO1)c1c(O)n(C2CCCCC2)c(=O)[nH]c1=O` (centres undefined), the solubility kinetic rises from 42.4 µg/mL (≈ 146 µM) to > 50.3 µg/mL.

Compared with `CC1CCC2(CC1)NC(=O)N(CC(=O)Nc1cc(S(=O)(=O)N3CCCC3)ccc1Cl)C2=O` (centres undefined), `Cc1ccc(NC(=O)c2ccc(=O)[nH]c2)cc1S(=O)(=O)N1CCCCCC1` is higher in solubility kinetic: 1.4 µg/mL (≈ 2.9 µM) for the first, > 58.4 µg/mL for the second.

Compared with `c1ccc(C(NCCNC(c2ccccc2)c2ccccc2)c2ccccc2)cc1`, `CC(C#N)Sc1ncnc2sc(-c3ccccc3)cc12` (centres undefined) is 2.1-fold lower in solubility kinetic: 1.7 µg/mL (≈ 4.33 µM) for the first, 0.8 µg/mL (≈ 2.69 µM) for the second.

Compared with `O=C(O)/C=C/C(=O)Nc1ccc(Cc2ccc(NC(=O)/C=C/C(=O)O)cc2)cc1`, `Cc1ccc(-c2csc(NC(=O)CN3C(=O)CCC3=O)n2)cc1` is 120-fold lower in solubility kinetic: 58 µg/mL (≈ 147 µM) for the first, 0.5 µg/mL (≈ 1.52 µM) for the second.

`O=C(Nc1cc(Cl)c(Cl)cc1Cl)c1cccnc1` gave a solubility kinetic of 6.1 µg/mL (≈ 20.2 µM).
